Data from US12428403B2, “N-(heterocyclyl and heterocyclylalkyl)-3-benzylpyridin-2-amine derivatives as SSTR4 agonists” (Takeda Pharmaceutical Company Limited, priority 2020, dated 2025).
pEC50, pIC50: −log10 of the molar value.

How the values were obtained:
[1] = target: T1, SSTR4 (Homo sapiens, UniProt P31391); experiment: cell-based
Procedure: This cell-based assay measures the ability of compounds to inhibit forskolin stimulated cAMP in CHO-K1 cells overexpressing SSTR4. CHO-K1 cells overexpressing SSTR4 (CHO-SSTR4) are purchased from DiscoveRx (product code 95-0059C2). The CHO-SSTR4 cells are maintained in F12K media with 10% Fetal Bovine Serum (Hyclone), 1% Pen/Strep (Life Technologies), and 800 μg/mL G418 (Life Technologies). To perform the assay, 3000 cells are plated per well in white 384-well plate (Corning 3570) in 50 complete media and the cells are allowed to attach for 16 hours in a 37° C., 5% CO2 incubator. The next day, the culture media is removed from the cells and the cells are washed (added then removed) with Krebs Ringer Buffer (ZenBio, KRB-1000 mL). Test compounds are suspended in DMSO and diluted in stimulation buffer: Krebs Ringer Buffer plus 0.5% BSA (Roche), 300 μM IBMX (Sigma), and 350 nM forskolin (Sigma). The cells are incubated in 10 μL compound/stimulation buffer for 30 minutes at room temperature. Cellular cAMP levels are detected with a HTRF LANCE Ultra cAMP kit (Perkin Elmer, catalog number TRF0264).
The assay is performed in accordance with the manufacturer's instructions. Five μL of diluted Eu-W8044 labeled streptavidin (dilution: 1:50 in cAMP Detection Buffer) is added to each well. Then 5 μL of diluted biotin cAMP (dilution: 1:150 in cAMP Detection Buffer) is added to each well. The plates are covered and allowed to incubate for 60 minutes at room temperature on a shaker. HTRF (665 nm/615 nm) is read on a Perkin Elmer ENVISION plate reader. The pEC50 values are generated using Activity Base for Screening Data Management.

[2] = target: SSTR1 (Homo sapiens, UniProt P30872); experiment: biochemical;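 further: competitive binding to membranes of CHO-K1 cells overexpressing SSTR1, incubated 60 min at room temperature, radioactivity read by scintillation counting after filtration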
Procedure: SSTR1 I-125 Somatostatin Competition Binding Assay for Selectivity Versus SSTR1
Membranes from CHO-K1 cells overexpressing SSTR1 are purchased from Perkin Elmer (catalog number ES-520-M400UA). Test compounds are suspended in DMSO and then diluted in assay buffer (25 mM HEPES pH 7.4, 10 mM MgCl2, 1 mM CaCl2, 0.5% BSA) plus 0.4 nM I-125 labeled somatostatin (Perkin Elmer catalog number NEX389). […] Then 10 μg of SSTR1 membranes in 50 μL assay buffer are added per well. The plate is incubated for 60 minutes at room temperature. […] The contents of the assay plate are transferred to filters with a TomTech harvester and washed 5 times with 20 mM HEPES, 100 mM NaCl. […] The scintillator sheets are melted to the filters using a heat block. The filters are then read in a MicroBeta scintillation counter. Binding Ki curves are generated using Activity Base for Screening Data Management and the results are reported as pIC50.

[3] = target: T1, SSTR4; experiment: SSTR4 I-125 somatostatin competition binding assay (CHO-K1 membranes); design: host or cells: CHO-K1; conditions: competition with I-125 labeled somatostatin, membranes from CHO-K1 overexpressing SSTR4; read-out: SSTR4 Binding pIC50 (converted)
From the text: SSTR4I-125 Somatostatin Competition Binding Assay
Membranes from CHO-K1 cells overexpressing SSTR4 are purchased from Perkin Elmer (catalog number ES-524-M400UA). […] The scintillator sheets are melted to filters using a heat block.
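Wherever pEC50 is given: CHO-K1 cells overexpressing SSTR4, reduction of forskolin-driven cAMP after 30 min compound exposure at room temperature, cAMP read by HTRF LANCE Ultra kit.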

T1 sequence (P31391 whole entry): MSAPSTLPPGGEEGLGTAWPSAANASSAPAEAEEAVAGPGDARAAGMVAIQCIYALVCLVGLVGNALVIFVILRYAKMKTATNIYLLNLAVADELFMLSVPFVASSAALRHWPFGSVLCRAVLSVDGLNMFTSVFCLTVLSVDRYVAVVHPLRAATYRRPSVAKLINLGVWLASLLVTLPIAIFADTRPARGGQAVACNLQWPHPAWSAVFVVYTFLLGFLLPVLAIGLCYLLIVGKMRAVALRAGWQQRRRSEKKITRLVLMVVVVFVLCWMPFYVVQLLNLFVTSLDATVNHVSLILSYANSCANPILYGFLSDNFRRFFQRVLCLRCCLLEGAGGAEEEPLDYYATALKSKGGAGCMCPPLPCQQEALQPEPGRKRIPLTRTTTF
Sequence of SSTR1 (P30872 whole entry): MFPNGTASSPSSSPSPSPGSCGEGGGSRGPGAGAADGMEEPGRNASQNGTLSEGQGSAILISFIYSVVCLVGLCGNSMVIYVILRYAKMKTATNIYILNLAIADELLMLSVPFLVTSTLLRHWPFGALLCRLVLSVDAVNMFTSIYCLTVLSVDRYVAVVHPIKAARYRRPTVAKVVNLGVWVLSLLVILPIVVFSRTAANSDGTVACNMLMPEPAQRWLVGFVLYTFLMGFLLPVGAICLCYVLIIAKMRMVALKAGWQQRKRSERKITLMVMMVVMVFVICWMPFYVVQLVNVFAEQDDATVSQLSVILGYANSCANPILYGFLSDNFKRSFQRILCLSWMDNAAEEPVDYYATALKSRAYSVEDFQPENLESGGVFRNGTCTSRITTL

pEC50 [1]	pIC50 [2]	IC50 [3] [nM]	SMILES
9.17	5.45	31.6	CO[C@H]1CCN(C(=O)c2nc(C(C)c3ccc(F)cc3)c(NCCN3CCCC3)nc2C)C1 (stereo partly drawn) [Example 68, (6-(1-(4-fluorophenyl)ethyl)-3-methyl-5-((2-(pyrrolidin-1-yl)ethyl)amino)pyrazin-2-yl)((S)-3-methoxypyrrolidin-1-yl)methanone]
8.93	5.05	21.9	CNC(=O)c1nc(Cc2cccc(C)c2)c(NCCN2CCCC2)nc1C [Example 40, N,3-dimethyl-6-(3-methylbenzyl)-5-((2-(pyrrolidin-1-yl)ethyl)amino)pyrazine-2-carboxamide]
8.27	5.24	50.1	CC(c1ccc(F)cc1)c1nc(C(N)=O)cnc1NCCN1CCCC1 (stereo not drawn) [Example 19, 6-(1-(4-fluorophenyl)ethyl)-5-((2-(pyrrolidin-1-yl)ethyl)amino)pyrazine-2-carboxamide]
8.38	5.46	36.3	Cc1nc(NCCN2CCCC2)c(C(C)c2ccc(F)cc2)nc1C(=O)N1CC[C@H](F)C1 (stereo partly drawn) [Example 66, (6-(1-(4-fluorophenyl)ethyl)-3-methyl-5-((2-(pyrrolidin-1-yl)ethyl)amino)pyrazin-2-yl)((S)-3-fluoropyrrolidin-1-yl)methanone]
7.90	5.00	138	Cc1nc(NCCN2CCCC2)c(Cc2ccc(F)cc2)nc1C(=O)N(C)C [Example 42, 6-(4-fluorobenzyl)-N,N,3-trimethyl-5-((2-(pyrrolidin-1-yl)ethyl)amino)pyrazine-2-carboxamide]
8.37	5.61	31.6	CO[C@H]1C[C@H](NC(=O)c2nc(C(C)c3ccc(F)cc3)c(NCCN3CCCC3)nc2C)C1 (stereo partly drawn) [Example 71, 6-(1-(4-fluorophenyl)ethyl)-N-(trans-3-methoxycyclobutyl)-3-methyl-5-((2-(pyrrolidin-1-yl)ethyl)amino)pyrazine-2-carboxamide]
8.73	5.79	16.2	COCCNC(=O)c1nc(C(C)c2ccc(F)cc2)c(NCCN2CCCC2)nc1C (stereo not drawn) [Example 52, 6-(1-(4-fluorophenyl)ethyl)-N-(2-methoxyethyl)-3-methyl-5-((2-(pyrrolidin-1-yl)ethyl)amino)pyrazine-2-carboxamide]
8.29	5.55	24.5	C[C@H](c1ccc(F)cc1)c1nc(C(N)=O)cnc1NCCN1CCCC1 (single isomer, unassigned) [Example 21]
7.21	5.34	490	CC(c1ccc(F)cc1)c1ncc(C(N)=O)nc1NCCN1CCCC1 (stereo not drawn) [Example 37, 5-(1-(4-fluorophenyl)ethyl)-6-((2-(pyrrolidin-1-yl)ethyl)amino)pyrazine-2-carboxamide]
8.31	5.80	40.7	Cc1nc(NCCN2CCCC2)c(C(C)c2ccc(F)cc2)nc1C(=O)N1CCC(F)(F)C1 (stereo not drawn) [Example 60, (3,3-difluoropyrrolidin-1-yl)(6-(1-(4-fluorophenyl)ethyl)-3-methyl-5-((2-(pyrrolidin-1-yl)ethyl)amino)pyrazin-2-yl)methanone]
9.11	5.02	11.7	Cc1nc(NCCN2CCCC2)c(C(C)c2ccc(F)cc2)nc1C(=O)N(C)C (stereo not drawn) [Example 48, 6-(1-(4-fluorophenyl)ethyl)-N,N,3-trimethyl-5-((2-(pyrrolidin-1-yl)ethyl)amino)pyrazine-2-carboxamide]
8.51	7.09	18.2	Cc1nc(NCCN2CCCC2)c(C(C)c2ccc(F)cc2)nc1C(=O)NCCF (stereo not drawn) [Example 51, N-(2-fluoroethyl)-6-(1-(4-fluorophenyl)ethyl)-3-methyl-5-((2-(pyrrolidin-1-yl)ethyl)amino)pyrazine-2-carboxamide]
9.01	5.59	16.6	CNC(=O)c1nc(C(C)c2ccc(F)cc2)c(NCCN2CCCC2)nc1C (stereo not drawn) [Example 49, 6-(1-(4-fluorophenyl)ethyl)-N,3-dimethyl-5-((2-(pyrrolidin-1-yl)ethyl)amino)pyrazine-2-carboxamide]
8.87	5.27	18.2	CCN(C)C(=O)c1nc(C(C)c2ccc(F)cc2)c(NCCN2CCCC2)nc1C (stereo not drawn) [Example 63, N-ethyl-6-(1-(4-fluorophenyl)ethyl)-N,3-dimethyl-5-((2-(pyrrolidin-1-yl)ethyl)amino)pyrazine-2-carboxamide]
8.77	5.44	10	Cc1nc(NCCN2CCCC2)c(C(C)c2ccc(F)cc2)nc1C(=O)N(C)C(C)C (stereo not drawn) [Example 67, 6-(1-(4-fluorophenyl)ethyl)-N-isopropyl-N,3-dimethyl-5-((2-(pyrrolidin-1-yl)ethyl)amino)pyrazine-2-carboxamide]
8.43	4.98	77.6	CNC(=O)c1cnc(NCCN2CCCC2)c(C(C)c2ccc(F)cc2)n1 (stereo not drawn) [Example 22, 6-(1-(4-fluorophenyl)ethyl)-N-methyl-5-((2-(pyrrolidin-1-yl)ethyl)amino)pyrazine-2-carboxamide]
7.39	–	–	Cc1nc(NCCN2CCCC2)c(C(C)c2ccc(F)cc2)nc1C(=O)NC1CCCC1 (stereo not drawn) [Example 57, N-cyclopentyl-6-(1-(4-fluorophenyl)ethyl)-3-methyl-5-((2-(pyrrolidin-1-yl)ethyl)amino)pyrazine-2-carboxamide]

Continued, compound first:

SMILES	pEC50 [1]	pIC50 [2]	IC50 [3] [nM]
Cc1nc(NCCN2CCC2)c(Cc2ccc(F)cc2)nc1C#N [Example 96, 5-((2-(azetidin-1-yl)ethyl)amino)-6-(4-fluorobenzyl)-3-methylpyrazine-2-carbonitrile]	7.56	4.96	61.7
Cc1cnc(-c2cnc(NCCN3CCCC3)c(C(C)c3ccc(F)cc3)n2)o1 (stereo not drawn) [Example 126, 3-(1-(4-fluorophenyl)ethyl)-5-(5-methyloxazol-2-yl)-N-(2-(pyrrolidin-1-yl)ethyl)pyrazin-2-amine]	7.53	5.58	110
Cc1cccc(Cc2nc(C(=O)N(C)C)c(C)nc2NCCN2CCCC2)c1 [Example 39, N,N,3-trimethyl-6-(3-methylbenzyl)-5-((2-(pyrrolidin-1-yl)ethyl)amino)pyrazine-2-carboxamide]	8.37	4.57	41.7
Cc1nnc([C@@H](C)c2ccccc2)c(NCCN2CCC2)n1 (single isomer, unassigned) [Example 145]	8.76	4.84	25.1
C[C@H](c1ccc(F)cc1)c1nc(C(N)=O)cnc1N[C@@H]1CCN(C)C1 (single isomer, unassigned) [Example 30]	7.31	4.91	912
Cc1nc(Cc2ccc(F)cc2)c(NCCN2CCC2)nc1C [Example 78, N-(2-(azetidin-1-yl)ethyl)-3-(4-fluorobenzyl)-5,6-dimethylpyrazin-2-amine]	7.90	4.55	77.6
Cc1nnc(C(C)c2ccc(F)cc2)c(NCCN2CCC2)n1 (stereo not drawn) [Example 132, N-(2-(azetidin-1-yl)ethyl)-6-(1-(4-fluorophenyl)ethyl)-3-methyl-1,2,4-triazin-5-amine]	8.71	4.32	28.2
Fc1ccc(Cc2nnc(C3CC3)nc2NCCN2CCC2)cc1 [Example 138, N-(2-(azetidin-1-yl)ethyl)-3-cyclopropyl-6-(4-fluorobenzyl)-1,2,4-triazin-5-amine]	7.79	5.30	89.1
C[C@H](c1ccc(F)cc1)c1nc(C(=O)NC2CCOCC2)cnc1NCCN1CCCC1 [Example 18, (R)-6-(1-(4-fluorophenyl)ethyl)-5-((2-(pyrrolidin-1-yl)ethyl)amino)-N-(tetrahydro-2H-pyran-4-yl)pyrazine-2-carboxamide]	7.92	5.05	166
C[C@H](c1ccc(F)cc1)c1nc(C(=O)N[C@H]2CCOC2)cnc1NCCN1CCCC1 [Example 12, 6-((R)-1-(4-fluorophenyl)ethyl)-5-((2-(pyrrolidin-1-yl)ethyl)amino)-N-((S)-tetrahydrofuran-3-yl)pyrazine-2-carboxamide]	7.82	5.25	162
Cc1nnc([C@@H](C)c2ccccc2)c(N[C@H]2CCN(C)C2)n1 (single isomer, unassigned) [Example 152]	7.57	5.00	204
Cc1nnc([C@@H](C)c2ccc(F)cc2)c(NCCN2CCC2)n1 (single isomer, unassigned) [Example 134]	8.66	4.82	19.5
Cc1cccc(Cc2cc3cccc(C)c3nc2NCCN2CCCC2)c1 [Example 7, 8-methyl-3-(3-methylbenzyl)-N-(2-(pyrrolidin-1-yl)ethyl)quinolin-2-amine]	6.18	–	–
CCc1cnc(Cc2ccccc2)c(NCCN2CCC2)n1 [Example 89, N-(2-(azetidin-1-yl)ethyl)-3-benzyl-6-ethylpyrazin-2-amine]	7.80	–	–
Cc1nnc(Cc2ccc(F)cc2)c(NC2CCN(C)CC2)n1 [Example 137, 6-(4-fluorobenzyl)-3-methyl-N-(1-methylpiperidin-4-yl)-1,2,4-triazin-5-amine]	6.85	–	–
CN1CCC1CNc1nccnc1Cc1ccc(F)cc1 (stereo not drawn) [Example 110, 3-(4-fluorobenzyl)-N-((1-methylazetidin-2-yl)methyl)pyrazin-2-amine]	5.69	–	–
Cc1nc(Cc2ccc(F)cc2)c(N[C@@H]2CCN(C)C2)nc1C [Example 81, (R)-3-(4-fluorobenzyl)-5,6-dimethyl-N-(1-methylpyrrolidin-3-yl)pyrazin-2-amine]	6.62	–	–
